Biological target: T1, Recombinant human CDK9/cyclin T1 (Homo sapiens, UniProt P50750)
T1 construct: purchased Carna bioscience 04-110
Assay: CDK9 enzyme inhibitory activity (ADP-Glo kinase assay)
Assay type: biochemical
Conditions: CDK9 enzyme activity, average of two independent repeats; for inhibition at 0.01 µM: read-out: Inhibition rate at different concentrations (%) 10 nM; for inhibition at 0.1 µM: read-out: Inhibition rate at different concentrations (%) 100 nM
Method: Experimental method: Recombinant human CDK9/cyclin T1 (Carna bioscience, Cat #04-110) was diluted with dilution buffer (20 mM Tris HCl (pH 7.5), 0.02% Triton X-100, 0.01% BSA, 2 mM DTT, 0.5 mM Na3VO4, 10% Glycerol) to […], the substrates CDK7/9 tide (ThermoFisher, Cat #PV5090) and ATP (sigmaaldrich, Cat #A1852) were diluted with assay buffer (25 mM Tris HCl (pH7.5), 10 mM MgCl2, 0.5 mM EGTA (pH 8), 0.5 mM Na3VO4, 5 mMb-glycerol phosphate, 0.1% Triton X-100, 2.5 mM DTT) to final concentrations of 100 μM and […] respectively, aliquot and set aside. 2 μl of diluted recombinant human CDK9/cyclin T1, 1 μl of test compound, and 2 μl of diluted substrate CDK7/9 tide containing ATP were added to the 384-well plate. […] The positive control was the well in which enzyme and substrate were co-incubated, and the negative control was the well in which dilution buffer and substrate were co-incubated. The inhibition rate was calculated according to the following formula.

T1 sequence (P50750 whole entry): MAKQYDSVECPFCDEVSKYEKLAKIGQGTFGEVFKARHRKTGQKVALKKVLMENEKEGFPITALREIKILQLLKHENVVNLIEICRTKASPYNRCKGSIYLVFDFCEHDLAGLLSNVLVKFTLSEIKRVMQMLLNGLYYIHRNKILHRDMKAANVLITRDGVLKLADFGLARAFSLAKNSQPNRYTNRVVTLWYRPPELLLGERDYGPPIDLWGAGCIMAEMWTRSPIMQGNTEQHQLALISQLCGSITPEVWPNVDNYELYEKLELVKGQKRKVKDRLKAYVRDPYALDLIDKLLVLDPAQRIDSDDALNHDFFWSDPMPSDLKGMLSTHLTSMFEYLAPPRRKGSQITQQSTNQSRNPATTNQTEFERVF
T1 sequence (O60563 whole entry partner): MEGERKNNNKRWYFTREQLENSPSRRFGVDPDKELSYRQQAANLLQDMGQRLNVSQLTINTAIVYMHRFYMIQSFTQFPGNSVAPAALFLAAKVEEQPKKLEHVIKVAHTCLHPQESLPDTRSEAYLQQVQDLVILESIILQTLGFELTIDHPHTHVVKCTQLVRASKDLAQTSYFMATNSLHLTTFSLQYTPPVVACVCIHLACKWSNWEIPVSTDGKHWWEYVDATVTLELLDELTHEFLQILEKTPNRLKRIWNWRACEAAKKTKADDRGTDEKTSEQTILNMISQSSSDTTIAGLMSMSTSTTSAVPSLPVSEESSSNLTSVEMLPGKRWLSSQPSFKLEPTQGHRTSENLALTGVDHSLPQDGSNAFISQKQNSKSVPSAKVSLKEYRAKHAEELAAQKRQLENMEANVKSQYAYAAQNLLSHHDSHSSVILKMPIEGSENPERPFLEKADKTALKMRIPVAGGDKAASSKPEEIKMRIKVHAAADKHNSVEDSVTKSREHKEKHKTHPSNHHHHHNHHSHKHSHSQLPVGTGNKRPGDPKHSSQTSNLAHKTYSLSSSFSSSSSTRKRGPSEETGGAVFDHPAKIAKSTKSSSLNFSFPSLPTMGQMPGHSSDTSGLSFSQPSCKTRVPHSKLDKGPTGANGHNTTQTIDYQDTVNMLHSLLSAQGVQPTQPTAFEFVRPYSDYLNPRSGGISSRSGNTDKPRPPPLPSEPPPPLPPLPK

Row | Structure (SMILES) | inhibition at 0.01 µM (compound 10 nM) | inhibition at 0.1 µM (compound 100 nM) | Inhibition rate at different concentrations (%) 10 nM (compound 10 nM, 0.01 µM) | Inhibition rate at different concentrations (%) 100 nM (compound 100 nM, 0.1 µM)
1 | CC1(C)Cc2c(-c3cc(NC(=O)NC4CCC(NC5COC5)CC4)ncc3Cl)cnn2C1 (stereo not drawn) [Example 63] | 40.2% | 69.3% | – | –
2 | CC1(C)Cc2c(-c3cc(NC(=O)NC4CCC(NC(=O)OC(C)(C)C)CC4)ncc3Cl)cnn2C1 (stereo not drawn) [Example 64, tert-butyl (1s,4s)-4-(3-(5-chloro-4-(5,5-dimethyl-5,6-dihydro-4H-pyrrolo [1,2-b]pyrazol-3-yl)pyridin-2-yl)ureido)cyclohexylcarbamate] | 28% | 56% | – | –
3 | CC1(C)Cc2c(-c3cc(NC(=O)NC4CCNCC4)ncc3Cl)cnn2C1 [Example 68, 1-(5-chloro-4-(5,5-dimethyl-5,6-dihydro-4H-pyrrolo[1,2-b]pyrazol-3-yl)pyridin-2-yl)-3-(piperidin-4-yl)urea] | 44% | 89% | – | –
4 | CC1(C)Cc2c(-c3cc(NC(=O)NC4CCCNCC4)ncc3Cl)cnn2C1 (stereo not drawn) [Example 69, 1-(azepan-4-yl)-3-(5-chloro-4-(5,5-dimethyl-5,6-dihydro-4H-pyrrolo[1,2-b]pyrazol-3-yl)pyridin-2-yl)urea] | 33.8% | 79.5% | – | –
5 | CC1(C)Cc2c(-c3cc(NC(=O)NC4CCCC(N)CC4)ncc3Cl)cnn2C1 (stereo not drawn) [Example 70, 1-(4-aminocycloheptyl)-3-(5-chloro-4-(5,5-dimethyl-5,6-dihydro-4H-pyrrolo[1,2-b]pyrazole-3-yl)pyridin-2-yl)urea] | 40% | 83.7% | – | –
6 | CC1(C)Cc2c(-c3cc(NC(=O)NCCCNC(=O)OC(C)(C)C)ncc3Cl)cnn2C1 [Example 71, tert-butyl (3-(3-(5-chloro-4-(5,5-dimethyl-5,6-dihydro-4H-pyrrolo[1,2-b]pyrazol-3-)pyridin-2-yl)ureido)propyl)carbamate] | 34% | 64% | – | –
7 | CC1(C)Cc2c(-c3cc(NC(=O)NCCCN)ncc3Cl)cnn2C1 [Example 72, 1-(3-aminopropyl)-3-(5-chloro-4-(5,5-dimethyl-5,6-dihydro-4H-pyrrolo [1,2-b]pyrazol-3-yl)pyridin-2-yl)urea] | 45% | 69% | – | –
8 | CC1(C)Cc2c(-c3cc(NC(=O)N[C@@H]4CC[C@@H](N)C4)ncc3Cl)cnn2C1 [Example 73, 1-((1S,3S)-3-aminocyclopentyl)-3-(5-chloro-4-(5,5-dimethyl-5,6-dihydro-4H-pyrrole[1,2-b]pyrazole-3-yl)pyridin-2-yl)urea] | 70% | 86% | – | –
9 | CC(=O)NC1CC(NC(=O)Nc2cc(-c3cnn4c3CC(C)(C)C4)c(Cl)cn2)C1 (stereo not drawn) [Example 75, N-((1r,3r)-3-(3-(5-chloro-4-(5,5-dimethyl-5,6-dihydro-4H-pyrrolo[1,2-b]pyrazol-3-yl)pyridin-2-yl)ureido)cyclobutyl)acetamide] | 51% | 83% | – | –
10 | CC1(C)Cc2c(-c3cc(NC(=O)NC4CCCC(NC(=O)OC(C)(C)C)C4)ncc3Cl)cnn2C1 (stereo not drawn) [Example 76, tert-butyl (3-(3-(5-chloro-4-(5,5-dimethyl-5,6-dihydro-4H-pyrrolo[1,2-b]pyrazol-3-yl)pyridin-2-yl)ureido)cyclohexyl)carbamate] | 25% | 91% | – | –
11 | CC1(C)Cc2c(-c3cc(NC(=O)NC4CCCC(N)C4)ncc3Cl)cnn2C1 (stereo not drawn) [Example 77, 1-(3-aminocyclohexyl)-3-(5-chloro-4-(5,5-dimethyl-5,6-dihydro-4H-pyrrolo[1,2-b]pyrazol-3-yl)pyridin-2-yl)urea] | 60.3% | 92% | – | –
12 | CCNC1CCCC(NC(=O)Nc2cc(-c3cnn4c3CC(C)(C)C4)c(Cl)cn2)C1 (stereo not drawn) [Example 78, 1-(5-chloro-4-(5,5-dimethyl-5,6-dihydro-4H-pyrrolo[1,2-b]pyrazol-3-yl)pyridin-2-yl)-3-(3-(ethylamino)cyclohexyl)urea] | 68% | 80% | – | –
13 | CC(=O)NC1CCCC(NC(=O)Nc2cc(-c3cnn4c3CC(C)(C)C4)c(Cl)cn2)C1 (stereo not drawn) [Example 79, N-(3-(3-(5-chloro-4-(5,5-dimethyl-5,6-dihydro-4H-pyrrolo[1,2-b]pyrazol-3-yl)pyridin-2-yl)ureido)cyclohexyl)acetamide] | 53% | 87% | – | –
14 | COCCNC1CCCC(NC(=O)Nc2cc(-c3cnn4c3CC(C)(C)C4)c(Cl)cn2)C1 (stereo not drawn) [Example 80, 1-(5-chloro-4-(5,5-dimethyl-5,6-dihydro-4H-pyrrolo[1,2-b]pyrazol-3-yl)pyridin-2-yl)-3-(3-((2-methoxyethyl)amino)cyclohexyl)urea] | 48% | 56% | – | –

Continued, values first:

Row | inhibition at 0.01 µM (compound 10 nM) | inhibition at 0.1 µM (compound 100 nM) | Inhibition rate at different concentrations (%) 10 nM (compound 10 nM, 0.01 µM) | Inhibition rate at different concentrations (%) 100 nM (compound 100 nM, 0.1 µM) | Structure (SMILES)
15 | 65.1% | 98.2% | – | – | [2H]C([2H])([2H])OCCNC1CCC(NC(=O)Nc2cc(-c3cnn4c3CC(C)(C)C4)c(Cl)cn2)CC1 (stereo not drawn) [Example 58, 1-(5-chloro-4-(5,5-dimethyl-5,6-dihydro-4H-pyrrolo[1,2-b]pyrazol-3-yl)pyridin-2-yl)-3-((1r,4r)-4-((2-(methoxy-d3)ethyl)amino)cyclohexyl)urea]
16 | 72% | 62% | – | – | CCNC1CCC(NC(=O)Nc2cc(-c3cnn4c3CC(C)(C)C4)c(Cl)cn2)CC1 (stereo not drawn) [Example 59, 1-(5-chloro-4-(5,5-dimethyl-5,6-dihydro-4H-pyrrolo[1,2-b]pyrazol-3-yl)pyridin-2-yl)-3-((1r,4r)-4-(ethylamino)cyclohexyl)urea]
17 | 49% | 87.3% | – | – | CC(C)NC1CCC(NC(=O)Nc2cc(-c3cnn4c3CC(C)(C)C4)c(Cl)cn2)CC1 (stereo not drawn) [Example 60, 1-(5-chloro-4-(5,5-dimethyl-5,6-dihydro-4H-pyrrolo[1,2-b]pyrazol-3-yl)pyridin-2-yl)-3-((1r,4r)-4-(isopropylamino)cyclohexyl)urea]
18 | 58.3% | 85.1% | – | – | CC1(C)Cc2c(-c3cc(NC(=O)NC4CCC(NCCF)CC4)ncc3Cl)cnn2C1 (stereo not drawn) [Example 61, 1-(5-chloro-4-(5,5-dimethyl-5,6-dihydro-4H-pyrrolo[1,2-b]pyrazol-3-yl)pyridin-2-yl)-3-((1r,4r)-4-((2-fluoroethyl)amino)cyclohexyl)urea]
19 | 54% | 90.9% | – | – | CC1(C)Cc2c(-c3cc(NC(=O)NC4CCC(NCCO)CC4)ncc3Cl)cnn2C1 (stereo not drawn) [Example 62, 1-(5-chloro-4-(5,5-dimethyl-5,6-dihydro-4H-pyrrolo[1,2-b]pyrazol-3-yl)pyridin-2-yl)-3-((1r,4r)-4-((2-hydroxyethyl)amino)cyclohexyl)urea]
20 | – | – | 58.0% | 84.0% | CC1(C)Cc2c(-c3cc(NC(=O)NC4CCC(N)CC4)ncc3Cl)cnn2C1 (stereo not drawn) [Example 65, 1-((1s,4s)-4-aminocyclohexyl)-3-(5-chloro-4-(5,5-dimethyl-5,6-dihydro-4H-pyrrolo[1,2-b]pyrazol-3-yl)pyridin-2-yl)urea]
21 | 57% | 69% | – | – | COCCNC1CCC(NC(=O)Nc2cc(-c3cnn4c3CC(C)(C)C4)c(Cl)cn2)CC1 (stereo not drawn) [Example 66, 1-(5-chloro-4-(5,5-dimethyl-5,6-dihydro-4H-pyrrolo[1,2-b]pyrazol-3-yl)pyridin-2-yl)-3-((1s,4s)-4-((2-methoxyethyl)amino)cyclohexyl)urea]

Reference: patent publication US20240351986A1, “UREA COMPOUND CONTAINING 2-HETEROAROMATIC RING SUBSTITUTION, PREPARATION METHOD THEREFOR AND USE THEREOF” (SHANGHAI INSTITUTE OF MATERIA MEDICA, CHINESE ACADEMY OF …, priority 2021, published 2024)
